Data published in US20050074879A1, “Antisense oligonucleotide modulation of STAT3 expression” (priority 2000, published 2005).
Oligonucleotides are written 5' to 3', each unit as a sugar letter and its base; * is a phosphorothioate linkage, no mark a phosphodiester; rarer units and linkages stand in square brackets, end groups in braces. Plain capitals give the bases only. e = 2'-O-(2-methoxyethyl) (MOE); [5mC] = 5-methylcytosine; d = 2'-deoxy (DNA)

What was measured:
[1] = test system: LGL leukemic cells; experiment: Sensitization of LGL cells to Fas-mediated apoptosis, flow cytometry; format: cell-based, human
Description: LGL leukemic cells were obtained from patients who met the clinical criteria of T cell (CD3+) LGL leukemia with increased LGL counts and clonal TCR gene rearrangements. All patients had chronic disease not requiring treatment at the time of analysis. Purified leukemic LGL cells were placed in 24-well plates at a concentration of 2×10^6/0.5 mL of complete medium (RPMI-1640 medium supplemented with 10% fetal bovine serum, 2 mM L-glutamine, 10 U/mL penicillin, and 100 ug/mL streptomycin, all from Gibco Life Technologies, Gaithersburg, Md.). Cells were incubated with either ISIS 17148 antisense oligonucleotide (SEQ ID NO: 95) or the control, ISIS 16094 (SEQ ID NO: 152). Antisense oligonucleotide delivery to LGL leukemic cells was by passive uptake and no transfection reagents were included in the reaction.
Extracts of LGL cells treated with antisense oligonucleotides (1 uM dosing for ISIS 17148 and the control) from three patients were obtained and assayed for STAT3 protein levels by Western blot. Sensitization of the LGL cells to Fas-mediated apoptosis was also measured by flow cytometry in cells treated with antisense oligonucleotides at doses of 1, 2 and 5 uM. By Western analysis, a reduction in STAT3 protein levels ranged from 25 to 45%. […] Levels of apoptosis in control oligonucleotide treated cells remained at 6% at all doses.

[2] = test system: Human STAT3 mRNA; experiment: Inhibition of human STAT3 mRNA expression in U266 cells, Northern blot; format: cell-based; conditions: following electroporation, Northern blotting
[3] = test system: U266 multiple myeloma cells; experiment: Apoptosis of U266 cells, Annexin-V staining, flow cytometry; format: cell-based, human
Description: U266 cells (ATCC, Bethesda, Md.) were cultured in RPMI 1640 medium supplemented with 10% heat-inactivated fetal bovine serum (Sigma Chemical Company, St. Louis, Mo.), 10 mM Hepes, pH 7.2, […] 2-ME, 2mM L-glutamine, 100 U/ml penicillin, and 100 µg/ml streptomycin (Gibco, Grand Island, N.Y.).
2′-O-methoxyethylribose modified phosphorothioate oligonucleotides were synthesized on an automated DNA synthesizer (Applied Biosystems model 380B), as described above. Chimeric oligonucleotides were employed in these studies; the chimeric oligonucleotides contain 2′-O-methoxyethyl modified residues flanking a 2′-deoxynucleotide/phosphorothioate region (gap) that supports RNase H activation. Oligonucleotides were analyzed by capillary gel electrophoresis and judged to be at least 85% full-length material. U266 (1×10^7 cells in PBS) were transfected with oligonucleotides by electroporation, at 175V, 1000 μF using a BTX Electro Cell Manipulator 600 (Genetronics, San Diego, Calif.).
10×10^6 U266 cells were electroporated with oligonucleotides and cultured for 48 hours before analysis of phosphatidylserine expression was performed as a measure of apoptosis using the Annexin-V staining kit (Clontech, Palo Alto, Calif.) according to the manufacturer's instructions. […] The samples were then diluted with FacsFlow buffer and analyzed on a Becton Dickinson FACScan (Mountain View, Calif.).

[4] = test system: LNCaP human prostatic carcinoma xenograft; experiment: LNCaP mouse model of prostate carcinoma: tumor volume and serum PSA in castrated nude mice; format: in vivo; conditions: 10 mg/kg intraperitoneally, up to 10 weeks post-castration
Description: The LNCaP murine model of human prostate carcinoma is described in Kiyama et al., Cancer Res. 63:3575-3584, 2003, incorporated herein by reference. Briefly, LNCaP human prostatic carcinoma cells were cultured and maintained in RPMI medium (Life Technologies, Inc., Carlsbad, Calif.) supplemented with 5% heat inactivated fetal calf serum (FCS). About 1×10^6 LNCaP cells were inoculated subcutaneously with 0.1 ml of Matrigel (Becton Dickinson Labware, Franklin Lakes, N.J.) in the flank region of 6-8 week old male athymic nude mice (Harlan Sprague Dawley, Inc., Indianapolis, Ind.) via a 27 gauge needle under methoxyfluorane anesthesia. Mice bearing tumors between 300 and 500 mm^3 in volume were castrated via a scrotal approach and randomly assigned to treatment with 10 mg/kg of either ISIS 113176 human antisense or ISIS 129987 human mismatch control STAT 3 oligonucleotide intraperitoneally five times per week for the first week followed by three times per week thereafter. Treatment commenced beginning one day after castration. […] Tumor volumes were calculated by the formula L×W×H×0.5236 (Gleave et al., Cancer Res. 51:1598-1605, 1992). Blood samples were obtained from tail vein incisions of mice, and serum PSA levels were determined by an enzymatic immunoassay kit with a lower limit of sensitivity of 0.2 μg/liter (Abbott IMX, Montreal, Quebec, Canada) according to the manufacturer's protocol.

[5] = test system: Mouse STAT3 protein; experiment: STAT3 protein levels in BCL1 cells by Western blot, dose response; format: cell-based; conditions: compared with mismatch control
Description: ISIS 17152 (SEQ ID. NO. 99) was chosen for further study. The effect of this oligonucleotide on protein levels was determined by Western blot. ISIS 23177 (SEQ ID NO. 106), a 3 base mismatch, was used as a control. BCL1 cells were grown, treated and processed as described in Example 2.
Nuclear extracts from primary B cells and B lymphoma cell lines were prepared as described in Karras, J. G., et al. (J. Exp. Med., 1997, 185, 1035-1042).
Western blotting was performed as described in Karras, J. G. et al. (J. Immunol., 1996, 157, 2299). STAT1 and STAT3 antibodies were obtained from UBI (Lake Placid, N.Y.).

[6] = test system: IgM secretion by BCL1 cells; experiment: BCL1 IgM secretion, ELISA; format: cell-based, mouse; conditions: compared with mismatch control
Description: The effect of ISIS 17152 (SEQ ID. NO. 99) on IgM secretion levels was determined. STAT3 has been implicated in regulation of IgM expression (Faris, M., et al., Immunology, 1997, 90, 350-357). BCL1 cells were grown, treated and processed as described in Example 2.
1×10^6 BCL1 cells were incubated in 12-well plates in 2 mL complete RPMI following electroporation. Supernatant was replaced at 24 hour post electroporation with fresh medium. 48 hours later, supernatants were harvested, centrifuged to remove cells, and assayed for IgM content using the OPT-EIA™ ELISA kit (Pharmingen, San Diego, Calif.) and capture and detecting antibodies for mouse IgM (Southern Biotechnology, Birmingham, Ala.).

[7] = test system: RANTES mRNA; experiment: Induction of chemokines in BCL1 cells, RNase protection assay: RANTES; format: cell-based, mouse; conditions: statement covers all three chemokines
Description: The effect of ISIS 17152 (SEQ ID. NO. 99) on chemokine levels was determined. BCL1 cells were grown, treated and processed as described in Example 2. Chemokine gene expression was induced in BCL1 cells by addition of […] of a CpG-containing oligonucleotide to the media 16 hours following antisense oligonucleotide electroporation. CpG-containing oligonucleotides are immune-stimulatory (Krieg, A. M., et al., Nature, 1995, 374, 546-549). The levels of chemokines were measured eight hours later using RNase protection assay as described in Example 2 with a mouse chemokine template set, Mck-5 (Pharmingen, San Diego, Calif.).

[8] = test system: Mouse B16 melanoma cells; experiment: Cell number of B16 melanoma cells after antisense treatment; format: cell-based; conditions: 24 hours after transfection
Description: Mouse B16 melanoma cells were grown in RPMI 1640 (Life Technologies, Inc., Grand Island, N.Y.) medium supplemented with 10% fetal bovine serum, 2 mM L-glutamine, 1 mM sodium pyruvate, 1% MEM nonessential amino acids and 100 IU/ml penicillin/streptomycin.
(§1) Cells were treated with ISIS 17152, targeted to mouse STAT3, or the 3-base mismatch control, ISIS 28084 ([…]; SEQ ID NO: 151). Cells were transfected with oligonucleotide using LipofectAMINE PLUSJ reagent (GibcoBRL). Oligonucleotide was pre-complexed with LipofectAMINE PLUSJ by adding the oligonucleotide to 100 μl serum-free RPMI 1640 medium, then 6 μl LipofectAMINE PLUSJ reagent was added, the sample was mixed well and incubated for 15 minutes at room temperature. An additional 4 μl of LipofectAMINE PLUSJ reagent was diluted to 100 μl in serum-free RPMI. This diluted LipofectAMINE PLUSJ was mixed with the pre-complexed oligonucleotide/LipofectAMINE PLUSJ mixture and incubated for 15 minutes at room temperature. 800 μl of serum-free RPMI 1640 was added, and the resulting oligonucleotide-LipofectAMINE PLUSJ-medium mixture (approximately 1 ml) was added to cells in a 6-well plate. After 3 hours incubation, 1 ml of RPMI 1640 supplemened with 20% fetal bovine serum was added. Oligonucleotide concentrations were 200 nM or 300 nM.
24 hours after transfection, cells were counted to determine the effect of antisense treatment on cell death. Cells were harvested at 24 hours post transfection for western blot analysis and at 48 hours post-transfection for Annexin-V staining for apoptosis.

[9] = test system: BCL1 cells; experiment: BCL1 cell proliferation, [3H]-thymidine incorporation; format: cell-based, mouse; conditions: summary of Table 6
Description: The effect of ISIS 17152 (SEQ ID NO. 99) on BCL1 proliferation was determined. BCL1 cells contain constitutively active STAT3 which is thought to be responsible for their proliferation. BCL1 cells were grown, treated and processed as described in Example 2.
1×10^5 BCL1 cells were incubated in 96-well plates in […] complete RPMI following electroporation. Cultures were pulsed with […] of [^3H]-thymidine for the last 8 hours of culture and cells were harvested and analyzed for thymidine incorporation as described in Francis, D. A. et al. (Int. Immunol., 1995, 7, 151-161) 48 hours after electroporation.

[10] = test system: STAT3 protein; experiment: STAT3 protein in B16 cells, Western blot; format: cell-based, mouse; conditions: 200 nM or 300 nM, 24 hours after treatment
Description: as §1
24 hours after transfection, cells were counted to determine the effect of antisense treatment on cell death. Cells were harvested at 24 hours post transfection for western blot analysis and at 48 hours post-transfection for Annexin-V staining for apoptosis. […]

[11] = test system: B16 cells; experiment: Apoptosis in B16 cells, Annexin V-PE staining and flow cytometry; format: cell-based, mouse
Description: as §1
24 hours after transfection, cells were counted to determine the effect of antisense treatment on cell death. […]
Apoptosis in B16 cells was measured by staining with Annexin V-PE (Clontech) and flow cytometry analysis 48 hours after antisense treatment. […]

Sequence | percent specific apoptosis ([1]; 1 uM, untreated cells 5%) [%] | percent specific apoptosis ([1]; 2 uM) [%] | percent specific apoptosis ([1]; 5 uM) [%] | STAT3 mRNA expression in U266 cells (in words) [2] | annexin V staining (in words) [3] | induction of serum PSA levels [4] | tumor growth [4] | reducing STAT3 protein levels (in words) [5] | reducing IgM secretion (in words) [6] | expression of the chemokines, RANTES, MIP-1 and MIP-1 (in words) [7] | cell number ([8]; 200 nM, Expt 1) | cell number ([8]; 200 nM, Expt 2) | cell number ([8]; 200 nM, Expt 3) | cell number ([8]; 300 nM, Expt 2) | cell number ([8]; 300 nM, Expt 3) | reduction of BCL1 cell proliferation [9] | STAT3 protein production (in words) [10] | cells staining positive for Annexin-V ([11]; 48 hours after antisense treatment) [%] | increase in apoptotic cells ([11]; versus mock and control oligonucleotide)
ACTCAAACTGCCCTCCTGCT (listed as DNA, chemistry not fully specified) [ISIS 17148] | 6 | 17 | 24 | potently inhibit STAT3 mRNA expression | increased levels of annexin V staining |  |  |  |  |  |  |  |  |  |  |  |  |  | 
GCTCCAGCATCTGCTGCTTC (antisense eG*e[5mC]*eT*e[5mC]*e[5mC]*dA*dG*d[5mC]*dA*dT*d[5mC]*dT*dG*d[5mC]*dT*eG*e[5mC]*eT*eT*e[5mC]) [ISIS 113176] |  |  |  | potently inhibit STAT3 mRNA expression |  | suppressed | suppressed |  |  |  |  |  |  |  |  |  |  |  | 
AAAAAGTGCCCAGATTGCCC (antisense eA*eA*eA*eA*eA*dG*dT*dG*dC*dC*dC*dA*dG*dA*dT*eT*eG*e[5mC]*e[5mC]*e[5mC]) [ISIS 17152] |  |  |  |  |  |  |  | significantly better at reducing STAT3 protein levels than the mismatch control | significantly better at reducing IgM secretion than the mismatch control | able to induce the expression of the chemokines | 3.8 × 10^5 | 6.8 × 10^5 | 1.8 × 10^5 | 3.5 × 10^5 | 2.2 × 10^5 | approximately 50% | significantly reduced | 29.84 | nearly threefold increase
